Where a name gives a salt, the structure may show the parent alone.

In the experiment the test system is NQO1 specific enzyme activity in BEAS-2B cells (marker for NRF2 activation). As to the kind of experiment: BEAS-2B NQO1 MTT Assay. Format: cell-based. To be noted: Homo sapiens, BEAS-2B, 48 h, NQO1 specific activity induction, 48 hours with compound. A digest of the protocol:
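Cells plated overnight at 37° C., 5% CO2, then exposed to compound for 48 hours. NQO1 activity read in crude lysates with MTT cocktail as kinetic absorbance at 570 nm over 30 minutes. pEC50 from Delta OD/min versus log concentration with a 3-parameter fit.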
With `Cc1ccc(C(OCc2cn(Cc3cccc(Cn4cc(CCCCO)nn4)c3)nn2)C(C)(C)C(=O)O)cc1CN1C[C@@H](C)Oc2ccccc2S1(=O)=O` (stereo partly drawn) [Example 42, 3-((1-(3-((4-(4-Hydroxybutyl)-1H-1,2,3-triazol-1-yl)methyl)benzyl)-1H-1,2,3-triazol-4-yl)methoxy)-2,2-dimethyl-3-(4-methyl-3-(((R)-4-methyl-1,1-dioxido-3,4-dihydro-2H-benzo[b][1,4,5]oxathiazepin-2-yl)methyl)phenyl)propanoic acid], the EC50 (usually the concentration that produces a half-maximal response) was in the range of 10 to 100 nM.
Under `Cc1ccc(C(OCc2cn(Cc3cccc(Cn4cc(C(=O)O)nn4)c3)nn2)C(C)(C)C(=O)O)cc1CN1C[C@@H](C)Oc2ccccc2S1(=O)=O` (stereo partly drawn) [Example 43, 1-(3-((4-((2-Carboxy-2-methyl-1-(4-methyl-3-(((R)-4-methyl-1,1-dioxido-3,4-dihydro-2H-[b][1,4,5]oxathiazepin-2-yl)methyl)phenyl)propoxy)methyl)-1H-1,2,3-triazol-1-yl)methyl)benzyl)-1H-1,2,3-triazole-4-carboxylic acid] stands 100 to 1000 nM; under `Cc1ccc(C(OCc2cn(Cc3cccc(Cn4cc(CC(=O)O)nn4)c3)nn2)C(C)(C)C(=O)O)cc1CN1C[C@@H](C)Oc2ccccc2S1(=O)=O` (stereo partly drawn) [Example 44, 3-((1-(3-((4-(Carboxymethyl)-1H-1,2,3-triazol-1-yl)methyl)benzyl)-1H-1,2,3-triazol-4-yl)methoxy)-2,2-dimethyl-3-(4-methyl-3-(((R)-4-methyl-1,1-dioxido-3,4-dihydro-2H-benzo[b][1,4,5]oxathiazepin-2-yl)methyl)phenyl)propanoic acid], 100 to 1000 nM; under `Cc1ccc(C(OCc2cn(Cc3cccc(Cn4cc(CCC(=O)O)nn4)c3)nn2)C(C)(C)C(=O)O)cc1CN1C[C@@H](C)Oc2ccccc2S1(=O)=O` (stereo partly drawn) [Example 45, 3-((1-(3-((4-(2-Carboxyethyl)-1H-1,2,3-triazol-1-yl)methyl)benzyl)-1H-1,2,3-triazol-4-yl)methoxy)-2,2-dimethyl-3-(4-methyl-3-(((R)-4-methyl-1,1-dioxido-3,4-dihydro-2H-benzo[b][1,4,5]oxathiazepin-2-yl)methyl)phenyl)propanoic acid], 100 to 1000 nM.
Under `CC[C@@H]1CN(Cc2cc(C(OCc3cn(Cc4cccc(Cn5cc(COC(c6ccc(C)c(CN7C[C@@H](CC)Oc8ccccc8S7(=O)=O)c6)C(C)(C)C(=O)O)nn5)c4)nn3)C(C)(C)C(=O)O)ccc2C)S(=O)(=O)c2ccccc2O1` (stereo partly drawn) [Example 47, (R)-3,3′-(((1,1′-(1,3-phenylenebis(methylene))bis(1H-1,2,3-triazole-4,1-diyl))bis(methylene))bis(oxy))bis(3-(3-(((R)-4-ethyl-1,1-dioxido-3,4-dihydro-2H-benzo[b][1,4,5]oxathiazepin-2-yl)methyl)-4-methylphenyl)-2,2-dimethylpropanoic acid)] stands 10 to 100 nM; under `Cc1ccc(C(OCc2cn(Cc3ccc(Cn4cc(COC(c5ccc(C)c(CN6C[C@@H](C)Oc7ccccc7S6(=O)=O)c5)C(C)(C)C(=O)O)nn4)cc3)nn2)C(C)(C)C(=O)O)cc1CN1C[C@@H](C)Oc2ccccc2S1(=O)=O` (stereo partly drawn) [Example 48, (R)-3,3′-(((1,1′-(1,4-phenylenebis(methylene))bis(1H-1,2,3-triazole-4,1-diyl))bis(methylene))bis(oxy))bis(2,2-dimethyl-3-(4-methyl-3-(((R)-4-methyl-1,1-dioxido-3,4-dihydro-2H-benzo[b][1,4,5]oxathiazepin-2-yl)methyl)phenyl)propanoic acid)], 10 to 100 nM.
As to `CCCN1CCC(Cn2cc(COC(c3ccc(C)c(CN4C[C@@H](C)Oc5ccccc5S4(=O)=O)c3)C(C)(C)C(=O)O)nn2)CC1` (stereo partly drawn) [Example 52, 2,2-Dimethyl-3-(4-methyl-3-(((R)-4-methyl-1,1-dioxido-3,4-dihydro-2H-benzo[b][1,4,5]oxathiazepin-2-yl)methyl)phenyl)-3-((1-((I-propylpiperidin-4-yl)methyl)-1H-1,2,3-triazol-4-yl)methoxy)propanoic acid], the EC50 lay in the range of 100 to 1000 nM.
The value for `Cc1ccc(C(OCc2cn(CC3CCNCC3)nn2)C(C)(C)C(=O)O)cc1CN1C[C@@H](C)Oc2ccccc2S1(=O)=O` (stereo partly drawn) [Example 53, 2,2-Dimethyl-3-(4-methyl-3-(((R)-4-methyl-1,1-dioxido-3,4-dihydro-2H-benzo[b][1,4,5]oxathiazepin-2-yl)methyl)phenyl)-3-((1-(piperidin-4-ylmethyl)-1H-1,2,3-triazol-4-yl)methoxy)propanoic Acid, Formic Acid Salt] was 100 to 1000 nM.
Under `CCn1cc(COC(c2ccc(C)c(CN(CC3CCCCCC3)C(C)=O)c2)C(C)(C)C(=O)O)nn1` (centres unmarked) [Example 54, 3-(3-((N-(cycloheptylmethyl)acetamido)methyl)-4-methylphenyl)-3-((1-ethyl-1H-1,2,3-triazol-4-yl)methoxy)-2,2-dimethylpropanoic acid] stands 100 to 1000 nM; under `Cc1ccc(C(OCc2cn(CC3CCN(C4CCN(C)CC4)CC3)nn2)C(C)(C)C(=O)O)cc1CN1C[C@@H](C)Oc2ccccc2S1(=O)=O` (stereo partly drawn) [Example 55, 2,2-Dimethyl-3-(4-methyl-3-(((R)-4-methyl-1,1-dioxido-3,4-dihydro-2H-benzo[b][1,4,5]oxathiazepin-2-yl)methyl)phenyl)-3-((1-((1′-methyl-[1,4′-bipiperidin]-4-yl)methyl)-1H-1,2,3-triazol-4-yl)methoxy)propanoic Acid, Formic Acid Salt], 100 to 1000 nM; under `COC(=O)C(C)(C)C(OCc1cn(Cc2cccc(-c3ccnc(C(=O)O)c3)c2)nn1)c1ccc(C)c(CN2C[C@@H](C)Oc3ccccc3S2(=O)=O)c1` (stereo partly drawn) [Example 57, 4-(3-((4-((3-Methoxy-2,2-dimethyl-1-(4-methyl-3-(((R)-4-methyl-1,1-dioxido-3,4-dihydro-2H-benzo[b][1,4,5]oxathiazepin-2-yl)methyl)phenyl)-3-oxopropoxy)methyl)-1H-1,2,3-triazol-1-yl)methyl)phenyl)picolinic acid], 100 to 1000 nM.
For the compound `COC(=O)C(C)(C)C(OCc1cn(Cc2cccc(-c3cccc(C(=O)O)n3)c2)nn1)c1ccc(C)c(CN2C[C@@H](C)Oc3ccccc3S2(=O)=O)c1` (stereo partly drawn) [Example 58, 6-(3-((4-((3-Methoxy-2,2-dimethyl-1-(4-methyl-3-(((R)-4-methyl-1,1-dioxido-3,4-dihydro-2H-benzo[b][1,4,5]oxathiazepin-2-yl)methyl)phenyl)-3-oxopropoxy)methyl)-1H-1,2,3-triazol-1-yl)methyl)-phenyl)picolinic acid], the EC50 lay in the range of 100 to 1000 nM.
As to `COC(=O)C(C)(C)C(OCc1cn(Cc2cccc(-c3ccc(C(=O)O)cn3)c2)nn1)c1ccc(C)c(CN2C[C@@H](C)Oc3ccccc3S2(=O)=O)c1` (stereo partly drawn) [Example 59, 6-(3-((4-((3-Methoxy-2,2-dimethyl-1-(4-methyl-3-(((R)-4-methyl-1,1-dioxido-3,4-dihydro-2H-benzo[b][1,4,5]oxathiazepin-2-yl)methyl)phenyl)-3-oxopropoxy)methyl)-1H-1,2,3-triazol-1-yl)methyl)-phenyl)nicotinic acid], the EC50 is 1000 to 10000 nM.
Under `CC[C@@H]1CN(Cc2cc(C(OCc3cn(CC)nn3)C(F)(F)C(=O)O)ccc2C)S(=O)(=O)c2ccccc2O1` (stereo partly drawn) [Example 60, 3-(3-(((R)-4-Ethyl-1,1-dioxido-3,4-dihydro-2H-benzo[b][1,4,5]oxathiazepin-2-yl)methyl)-4-methylphenyl)-3-((1-ethyl-1H-1,2,3-triazol-4-yl)methoxy)-2,2-difluoropropanoic acid] stands 100 to 1000 nM.

Source of the values: patent US12091409B2, “Ether linked triazoles as NRF2 activators” (ASTEX THERAPEUTICS LIMITED, priority 2016, dated 2024).
